What was measured:
Type in all cases: in vivo
[1] = system: Frankliniella occidentalis; assay: Pesticidal activity against Frankliniella occidentalis, spray method; conditions: 48 h, read-out: mortality rate, Frankliniella occidentalis
Text: A water-soaked filter paper (9.0 cm in diameter) was placed in an insect breeding dish (Lab Guide®) with a diameter of 9.0 cm and a height of 4.0 cm, and then parafilm (width 4.0 cm×height 4.0 cm) was placed thereon. Before treating with a pesticide composition, 10 adult Frankliniella occidentalis were inoculated per petri dish using a No. 4 brush. In this case, Frankliniella occidentalis adults used were those purchased from the Bio Utilization Institute (Andong, Korea). Then, each of the pesticide compositions prepared in Examples (a diluted solution in which each of the compounds of Synthesis Examples (concentration: 100 ppm) was diluted; the solvent=distilled water+acetone 50,000 mg/L+Triton X-100 100 mg/L) was loaded into a 100 mL small sprayer, and sprayed 10-12 times at a distance of 30 cm and a height of 50 cm, and one cotyledons of soybean, which is a host plant, were added one at a time. Then, the Frankliniella occidentalis adults were stored under the conditions of 16 hours of light and 8 hours of darkness, 25±1° C., and relative humidity of 50-60%, and the number of live Frankliniella occidentalis adults was counted 48 hours after the inoculation. Thereafter, the larvae mortality rate was calculated in the same manner as in Test Example 1 above.

[2] = system: Phaedon brassicae; assay: Pesticidal activity against Phaedon brassicae, leaf-dipping method; conditions: counted 24, 48, 72 hours, time not given, read-out: mortality rate, Phaedon brassicae
Description: Cabbage (Daiya) leaves were cut into pieces with a diameter of 5.8 cm, dipped in the pesticide composition where the compound of Synthesis Example 2 was diluted (the solvent=distilled water+acetone 50,000 mg/L+Triton X-100 100 mg/L) for 30 seconds, and sufficiently shade-dried. Then, the shade-dried cabbage leaves were is placed in a petri dish (8.8 cm in diameter) covered with filter paper and repeatedly inoculated 3-5 times with the larvae of Phaedon brassicae, 10 larvae per inoculation. In particular, the Phaedon brassicae larvae used were those which were bred in the Andong National University (Korea) for multiple generations.
After the inoculation, the Phaedon brassicae larvae were stored under the conditions of 16 hours of light and 8 hours of dark, 25±1° C. and 50-60% relative humidity, and the number of live Phaedon brassicae larvae was counted 24, 48, and 72 hours after the inoculation. Thereafter, the larvae mortality rate was calculated in the same manner as in Test Example 1 above.

[3] = system: Thrips tabaci Lindeman; assay: Pesticidal activity against Thrips tabaci Lindeman, spray method; conditions: adults, counted 24 and 48 hours, time not given, read-out: mortality rate, Thrips tabaci Lindeman
Text: A water-soaked filter paper (9.0 cm in diameter) was placed in an insect breeding dish (Lab Guide®) with a diameter of 9.0 cm and a height of 4.0 cm, and then parafilm (width 4.0 cm×height 4.0 cm) was placed thereon. Before being treated with a pesticide composition, 10 adult Thrips tabaci Lindeman were inoculated per petri dish using a No. 4 brush. In this case, Thrips tabaci Lindeman adults used were those collected in a place near the Andong National University (Korea) and bred for multiple generations. Then, the pesticide composition where the compound of Synthesis Example 2 was diluted (the solvent=distilled water+acetone 50,000 mg/L+Triton X-100 100 mg/L) was loaded into a 100 mL small sprayer, and sprayed 10-12 times at a distance of 30 cm and a height of 50 cm, and one cotyledons of soybean, which is a host plant, were added one at a time. Then, the Thrips tabaci Lindeman adults were stored under the conditions of 16 hours of light and 8 hours of darkness, 25±1° C., and relative humidity of 50-60%, and the number of live Thrips tabaci Lindeman adults was counted 24, and 48 hours after the inoculation. Thereafter, the larvae mortality rate was calculated in the same manner as in Test Example 1 above.

Compound CCN1OC[C@@H](NC(=O)c2ccc(C3=NO[C@@](c4cc(Cl)c(F)c(Cl)c4)(C(F)(F)F)C3)cc2C)C1=O [Comparative Example 3, isocycloseram] has a mortality at 5 ppm [1] of 100%, a mortality at 10 ppm [1] of 100% and a mortality at 1 ppm ([2]; 1 ppm) of 100%. The mortality at 3 ppm ([2]; 3 ppm) was 100%, the mortality at 10 ppm ([2]; 10 ppm) was 100% and the mortality at 1 ppm ([3]; 1 ppm) was 66%. It also gave a mortality at 3 ppm ([3]; 3 ppm) of 76% and a mortality at 10 ppm ([3]; 10 ppm) of 90%.

Reference: patent publication US20250380697A1, “ISOXAZOLINE DERIVATIVE COMPOUND AND INSECTICIDAL COMPOSITION COMPRISING SAME” (KYUNG NONG CORPORATION, priority 2022, published 2025)
